The results in this text go back to patent US20230241071A1, “COMBINATION TREATMENT OF LIVER DISORDERS” (Terns Pharmaceuticals, Inc., priority 2021, published 2023).

In general, IC50 refers to the concentration that gives 50% inhibition. In general, AUC refers to concentration integrated over time.

One series has as its target T1, OATP1B1 (Homo sapiens, UniProt Q9Y6L6).
T1 sequence (Q9Y6L6 1-691): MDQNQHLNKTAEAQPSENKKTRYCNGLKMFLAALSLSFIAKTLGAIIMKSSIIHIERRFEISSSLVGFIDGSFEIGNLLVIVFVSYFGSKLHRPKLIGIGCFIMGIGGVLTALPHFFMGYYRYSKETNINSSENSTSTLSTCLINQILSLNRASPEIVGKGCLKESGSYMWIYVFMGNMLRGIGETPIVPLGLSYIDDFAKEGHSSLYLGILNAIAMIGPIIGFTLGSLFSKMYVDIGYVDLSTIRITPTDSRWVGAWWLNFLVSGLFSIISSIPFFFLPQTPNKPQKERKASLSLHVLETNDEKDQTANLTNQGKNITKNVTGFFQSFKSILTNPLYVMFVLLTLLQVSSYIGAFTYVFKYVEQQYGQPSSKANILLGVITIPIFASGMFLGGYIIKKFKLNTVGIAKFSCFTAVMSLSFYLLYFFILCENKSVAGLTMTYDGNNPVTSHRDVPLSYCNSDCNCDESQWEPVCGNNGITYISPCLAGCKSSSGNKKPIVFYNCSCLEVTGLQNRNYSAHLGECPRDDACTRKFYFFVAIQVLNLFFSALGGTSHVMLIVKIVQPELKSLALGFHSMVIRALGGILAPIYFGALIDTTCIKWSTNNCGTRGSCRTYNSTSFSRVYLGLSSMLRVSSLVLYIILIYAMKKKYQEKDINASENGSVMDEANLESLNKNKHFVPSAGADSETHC
The experiment in a line: In vitro transporter inhibition, OATP1B1. Format: in vitro ADME.

A short description of series [1]: Mouse NASH model (high fat diet + CCl4), Compound 2. The class given is in vivo. The note with it: C57BL/6J, in vivo, oral; mouse model of NASH; read-out: threshold AUC achieving significant histological improvement. Here is the method:
(§1) C57BL/6J mice were fed a high fat diet for 10 weeks to induce obesity (>38 g BW). Obese mice were injected intraperitoneally (i.p.) twice a week for four weeks with 0.5 μl/g 25% CCl4 (formulated in olive oil) to induce fibrosis, and one group of normal BW mice were injected i.p. twice a week for four weeks with olive oil to serve as a healthy control. During the same dosing period, obese mice were fed orally once a day for 28 days with vehicle or varying doses of Compound 2. On CCl4 dosing days, CCl4 was administered at 4 hours post compound or vehicle dosing. On day 27, all animals were fasted for about 16 hours before terminal euthanasia. On day 28, all animals were sacrificed and various biological parameters were analyzed. Total body, liver, heart and brain weight were measured and changes in liver and heart weight were normalized using brain weight.
(§2) Liver samples were collected for whole transcriptome analysis by RNA sequencing (RNAseq). RNAseq library (n=5 per group) preparation and sequencing was performed using Illumina standard protocols. Alignment of sequencing reads was performed using STAR aligner software and read counts were estimated using RSEM. Differentially expressed genes (compared to vehicle-treated NASH control mice) were determined using EdgeR software. Gene ontology analysis was performed using Advaita software with fold-change and adjusted p-value cutoffs of >1.5 and <0.05, respectively. Gene ontologies were derived from the Gene Ontology Consortium database (2019 Apr. 26) (Ashburner et al., Gene ontology: Tool for the unification of biology. Nature Genetics 25(1): 25-9 (2000); Gene Ontology Consortium, Creating the Gene Ontology Resource: Design and Implementation. Genome Research 11: 1425-1433 (2001)).

Another series has as its system mouse NASH model. Described as above. The class given is in vivo. How it is done:
as §1, §2

Where [2] appears, read: oral QD 28 days, all doses tested.

In turn, `N#Cc1nn(-c2cc(Cl)c(Oc3n[nH]c(=O)c4ccccc34)c(Cl)c2)c(=O)[nH]c1=O` [Compound 2, 2-(3,5-dichloro-4-((4-oxo-3,4-dihydrophthalazin-1-yl)oxy)phenyl)-3,5-dioxo-2,3,4,5-tetrahydro-1,2,4-triazine-6-carbonitrile] came in with an IC50 at OATP1B1 of 2.01 µM. Also, the AUC in series [1] amounted to 3320 ng·h/mL. Also, the “expression of genes associated with collagen extracellular matrix and hepatic stellate cell activation” value in the series with mouse NASH model (liver RNAseq vs NASH control mice) was “reducing their expression levels”. In addition, in the series with mouse NASH model (oral QD 28 days), the “liver inflammation (histology)” value is recorded as “trend in inflammation reduction”, the liver/brain weight entry is on record as “significantly reduced” and the “total body weight or heart/brain weight” value is on record as “no effect”. Further, the “liver fibrosis (histology)” value in the series on mouse NASH model (oral QD 28 days, 3 and 10 mpk) is “significantly reduced”. In the series on mouse NASH model (setting [2]), the “liver steatosis (histology)” value is recorded as “significantly reduced”; the “serum total cholesterol, triglycerides and ALT” value is on record as “significantly reduced”.
